# Experimental data taken from PMC8699473, “An Easily Expandable Multi-Drug LC-MS Assay for the Simultaneous Quantification of 57 Oral Antitumor Drugs in Human Plasma” (Cancers, 2021).
# Tests used:
# [1] = Short-term stability in spiked pooled human plasma (bench-top, 4 °C, 56 °C)
# [2] = Long-term stability in spiked pooled human plasma
# [3] = Autosampler stability of ready for injection samples; assay type: physicochemical, human
# [4] = Freeze-thaw stability in spiked pooled human plasma; assay type: physicochemical
# [5] = Plasma concentrations in patients on oral antitumor therapy (LC-MS); assay type: in vivo, human
# Excerpt: The liquid chromatography-mass spectrometer system consisted of a Thermo Scientific Dionex UltiMate^TM 3000 with an integrated and temperature controlled autosampler (Thermo Fisher Scientific, Dreieich, Germany). An Acquity UPLC® BEH C18 column (2.1 × 100 mm, 1.7 µm; Waters, Milford, CT, USA) equipped with an Acquity UPLC® BEH C18 VanGuard^TM Pre-Column (2.1 × 5 mm, 1.7 µm; Waters, Milford, CT, USA) was used for chromatographic separation. The Q-Exactive^TM Focus mass spectrometer (MS) was hyphenated with a heated electrospray ionization (HESI) source (both from Thermo Fisher Scientific, Dreieich, Germany).
# Chromatographic separation was achieved using a gradient elution with water containing 0.5% (v/v) FA (eluent A) and MeOH with 0.1% (v/v) FA (eluent B). The injection volume was 5 µL. The gradient program is shown in Supplement Table S2. The flow rate was 0.5 mL/min with a total run time of 15 min. The column heater was maintained at 50 °C and the autosampler temperature was 4 °C.
# The following MS and HESI settings were maintained for all analyses: Sheath gas, auxiliary gas, and sweep gas flow rates were set to 60, 20, and 0, respectively. The spray voltage was 4000 V. Both capillary and auxiliary gas heater temperatures were set to 400 °C. High-purity nitrogen gas was used for the HESI source gases and for the bath gas of the C-trap. […] The HESI source was configured in positive mode for ionization.
# The stock solutions were stored in glass vials at −80 °C. Aliquots of all stock solutions were combined in ACN (volumes of individual stock solution solvents are negligible) to obtain a standard solution of all analytes with an individual concentration of 200% of the respective trough level (cmin). Eight individual working standards were prepared by stepwise dilution of this standard solution with concentrations from 10 to 200% cmin (shown in Supplement Table S3). Furthermore, the four individual IS stock solutions were combined and diluted to 50 ng/mL with ACN. Calibration and validation standards were prepared by spiking 50 µL pooled human plasma with 10 µL of the respective working solution. Next, 250 µL IS solution (50 ng/mL in ACN) were added and vortexed vigorously. […] Then, 100 µL supernatant were transferred to 300 µL HPLC insert glass vials and diluted with 100 µL eluent (90% A/10% B). For blank samples, 50 µL pooled human plasma were combined with 10 µL ACN (instead of working solution) and prepared as described above. The calibration and validation standards were freshly prepared before every run. Patient plasma samples were prepared as calibration and validation standards (no additional processing step necessary), except for adding 10 µL ACN instead of 10 µL working standard. Before sample preparation, the frozen plasma samples were thawed in absence of light at 4 °C.
# Blood samples were collected over the entire dosing interval from patients treated with an oral anticancer drug as listed in Supplement Table S4. […] A maximum of two samples at two different time points throughout the entire dosing interval were collected per patient. Treatment duration before collection was at least five half-lives (depending on the specific oral anticancer drug). The samples were collected in K3-EDTA tubes.
# A total of 71 blood samples from 39 patients treated with 14 different oral anticancer drugs were collected (see Supplement Table S4 for details). All patients were recruited from independent outpatient clinics associated with the Comprehensive Cancer Center of the University Hospital Erlangen (CCC Erlangen-EMN). Of 71 blood samples, 41 were taken ±4 h of trough level (cmin).
# [6] = design: method as in supplement references [1-55] as printed per drug; details: minimum steady-state blood plasma concentration after multiple dose administration; ref supplement references [1-55] per drug; cited from earlier work
smiles,measurement,setting,value
C=CC(=O)Nc1cc(Nc2nccc(-c3cn(C)c4ccccc34)n2)c(OC)cc1N(C)CCN(C)C [Osimertinib],concentrations in short-term stability investigations,"[1]; 24 h, room temperature, with or without light",60.5–75.7%
same,"Short-time stability (1h, 56°C) Accuracy [%]",[1]; validation standard 2xLLOV,29.9%
same,"Short-time stability (24h, 4°C, without daylight) Accuracy [%]",[1]; validation standard 2xLLOV,95.8%
same,"Short-time stability (24h, RT, with daylight) Accuracy [%]",[1]; validation standard 2xLLOV,61.4%
same,"Short-time stability (24h, RT, without daylight) Accuracy [%]",[1]; validation standard 2xLLOV,61.7%
same,"Short-time stability (1h, 56°C) Accuracy [%]",[1]; validation standard LLOV,28.7%
same,"Short-time stability (24h, 4°C, without daylight) Accuracy [%]",[1]; validation standard LLOV,85.8%
same,"Short-time stability (24h, RT, with daylight) Accuracy [%]",[1]; validation standard LLOV,62.0%
same,"Short-time stability (24h, RT, without daylight) Accuracy [%]",[1]; validation standard LLOV,60.5%
same,"Short-time stability (1h, 56°C) Accuracy [%]",[1]; validation standard MOV,30.1%
same,"Short-time stability (24h, 4°C, without daylight) Accuracy [%]",[1]; validation standard MOV,96.3%
same,"Short-time stability (24h, RT, with daylight) Accuracy [%]",[1]; validation standard MOV,75.7%
same,"Short-time stability (24h, RT, without daylight) Accuracy [%]",[1]; validation standard MOV,72.0%
same,"Short-time stability (1h, 56°C) Accuracy [%]",[1]; validation standard ULOV,26.0%
same,"Short-time stability (24h, 4°C, without daylight) Accuracy [%]",[1]; validation standard ULOV,86.7%
same,"Short-time stability (24h, RT, with daylight) Accuracy [%]",[1]; validation standard ULOV,67.4%
same,"Short-time stability (24h, RT, without daylight) Accuracy [%]",[1]; validation standard ULOV,63.9%
same,"Long-term stability, 1 month, -20°C Accuracy [%]",[2]; validation standard 2xLLOV,95.2%
same,"Long-term stability, 1 month, -80°C Accuracy [%]",[2]; validation standard 2xLLOV,93.2%
same,"Long-term stability, 2 month, -20°C Accuracy [%]",[2]; validation standard 2xLLOV,89.2%
same,"Long-term stability, 2 month, -80°C Accuracy [%]",[2]; validation standard 2xLLOV,103.9%
same,"Long-term stability, 3 month, -20°C Accuracy [%]",[2]; validation standard 2xLLOV,82.8%
same,"Long-term stability, 3 month, -80°C Accuracy [%]",[2]; validation standard 2xLLOV,100.0%
same,"Long-term stability, 6 weeks, 4°C, without daylight Accuracy [%]",[2]; validation standard 2xLLOV,10.5%
same,"Long-term stability, 1 month, -20°C Accuracy [%]",[2]; validation standard LLOV,83.0%
same,"Long-term stability, 1 month, -80°C Accuracy [%]",[2]; validation standard LLOV,86.9%
same,"Long-term stability, 2 month, -20°C Accuracy [%]",[2]; validation standard LLOV,84.8%
same,"Long-term stability, 2 month, -80°C Accuracy [%]",[2]; validation standard LLOV,96.9%
same,"Long-term stability, 3 month, -20°C Accuracy [%]",[2]; validation standard LLOV,66.7%
same,"Long-term stability, 3 month, -80°C Accuracy [%]",[2]; validation standard LLOV,91.8%
same,"Long-term stability, 6 weeks, 4°C, without daylight Accuracy [%]",[2]; validation standard LLOV,5.4%
same,"Long-term stability, 1 month, -20°C Accuracy [%]",[2]; validation standard MOV,97.0%
same,"Long-term stability, 1 month, -80°C Accuracy [%]",[2]; validation standard MOV,96.6%
same,"Long-term stability, 2 month, -20°C Accuracy [%]",[2]; validation standard MOV,95.2%
same,"Long-term stability, 2 month, -80°C Accuracy [%]",[2]; validation standard MOV,101.6%
same,"Long-term stability, 3 month, -20°C Accuracy [%]",[2]; validation standard MOV,90.9%
same,"Long-term stability, 3 month, -80°C Accuracy [%]",[2]; validation standard MOV,101.8%
same,"Long-term stability, 6 weeks, 4°C, without daylight Accuracy [%]",[2]; validation standard MOV,53.4%
same,"Long-term stability, 1 month, -20°C Accuracy [%]",[2]; validation standard ULOV,92.3%
same,"Long-term stability, 1 month, -80°C Accuracy [%]",[2]; validation standard ULOV,93.2%
same,"Long-term stability, 2 month, -20°C Accuracy [%]",[2]; validation standard ULOV,91.4%
same,"Long-term stability, 2 month, -80°C Accuracy [%]",[2]; validation standard ULOV,101.4%
same,"Long-term stability, 3 month, -20°C Accuracy [%]",[2]; validation standard ULOV,88.6%
same,"Long-term stability, 3 month, -80°C Accuracy [%]",[2]; validation standard ULOV,93.8%
same,"Long-term stability, 6 weeks, 4°C, without daylight Accuracy [%]",[2]; validation standard ULOV,41.5%
same,"Autosampler (24h, 4°C) Accuracy [%]",[3]; validation standard 2xLLOV,104.2%
same,"Autosampler (72h, 4°C) Accuracy [%]",[3]; validation standard 2xLLOV,99.1%
same,"Autosampler (24h, 4°C) Accuracy [%]",[3]; validation standard LLOV,90.3%
same,"Autosampler (72h, 4°C) Accuracy [%]",[3]; validation standard LLOV,91.2%
same,"Autosampler (24h, 4°C) Accuracy [%]",[3]; validation standard MOV,103.8%
same,"Autosampler (72h, 4°C) Accuracy [%]",[3]; validation standard MOV,100.3%
same,"Autosampler (24h, 4°C) Accuracy [%]",[3]; validation standard ULOV,98.4%
same,"Autosampler (72h, 4°C) Accuracy [%]",[3]; validation standard ULOV,99.1%
same,Freeze-Thaw Accuracy [%],[4]; validation standard 2xLLOV,93.7%
same,Freeze-Thaw Accuracy [%],[4]; validation standard LLOV,95.6%
same,Freeze-Thaw Accuracy [%],[4]; validation standard MOV,96.2%
same,Freeze-Thaw Accuracy [%],[4]; validation standard ULOV,92.7%
same,Measured plasma concentration,"[5]; 80 mg/day, 24 h, ±4 h of trough level: no",167.8 ng/mL
same,Min–Max Concentration [% of r.c.],"[5]; patient plasma, all samples, r.c. = respective cmin",101.1 % of r.c.
same,cmin,[6],166 ng/mL
